{"source": "ChEMBL document CHEMBL5154677", "about": "“On-Demand Activation of a Bioorthogonal Prodrug of SN-38 with Fast Reaction Kinetics and High Releasing Efficiency In Vivo” (J Med Chem, 2022)", "key": {"[1]": {"assay": "Dissociation constant , pKa of the compound", "format": "physicochemical"}, "[2]": {"assay": "Prodrug activation in human A549 cells xenografted in nude mouse assessed as drug release by measuring reduction in blue fluorescence at 5 mg/kg, iv in presence of bis(pinacolato)diboron administered every 5 mins for 1 hr by DAPI staining based confocal laser scanning microscopy", "format": "organism-based", "details": "in vivo; call rule not given here"}, "A549 [3]": {"system": "A549", "assay": "Cytotoxicity against human A549 cells assessed as cell growth inhibition incubated for 120 hrs in presence of bis(pinacolato)diboron by CCK-8 assay", "format": "functional, cell-based", "details": "A549, 120 h"}, "A549 [4]": {"system": "A549", "assay": "Cytotoxicity against human A549 cells assessed as reduction in cell viability incubated for 72 hrs in presence of bis(pinacolato)diboron by CCK-8 assay", "format": "functional, cell-based", "details": "A549, 72 h"}, "[5]": {"assay": "Cytotoxicity against HEK293T cells assessed as reduction in cell viability measured after 72 hrs by CCK-8 assay", "format": "toxicity, cell-based, HEK-293T", "details": "human"}, "[6]": {"assay": "Prodrug activation in human A549 cells xenografted in nude mouse assessed as drug release by measuring increase in yellow fluorescence at 5 mg/kg, iv in presence of bis(pinacolato)diboron administered every 5 mins for 1 hr by FITC staining based confocal laser scanning microscopy", "format": "organism-based", "details": "in vivo"}, "A549 [7]": {"system": "A549", "assay": "Cytotoxicity against human A549 cells assessed as reduction in cell viability measured after 72 hrs by CCK-8 assay", "format": "functional, cell-based", "details": "A549, 72 h"}, "[8]": {"assay": "Drug uptake in human A549 cells assessed as drug internalization by measuring blue fluorescence at 100 uM incubated for 1 hr by DAPI staining based confocal fluorescence microscopy", "format": "ADME, cell-based", "details": "a549, 1 h"}, "[9]": {"assay": "Prodrug activation in human A549 cells assessed as SN-38 release by measuring increase in yellow fluorescence at 100 uM in presence of bis(pinacolato)diboron incubated for 1 hr by FITC staining based confocal fluorescence microscopy", "format": "cell-based", "details": "a549, 1 h"}, "[10]": {"assay": "Solubility of compound in PBS", "format": "physicochemical", "details": "buffer"}, "[11]": {"assay": "Prodrug activation in human A549 cells assessed as increase in yellow fluorescence at 100 nM incubated for 72 to 120 hrs using FITC staining based laser confocal fluorescence microscopy", "format": "cell-based", "details": "a549, 0.1 µM, time 72-120 hrs"}, "[12]": {"assay": "Stability of prodrug in PBS at pH 7.4 assessed as retention time of drug released measured after 24 hrs by LC-MS analysis", "format": "physicochemical", "details": "buffer, pH 7.4, 24 h"}, "[13]": {"assay": "Drug uptake in human A549 cells assessed as drug internalization by measuring increase in fluorescence intensity at 100 uM incubated for 1 hr by FITC staining based confocal fluorescence microscopy", "format": "ADME, cell-based", "details": "a549, 1 h"}, "[14]": {"assay": "Stability of the prodrug in PBS at pH 6.5 assessed as suppression of hydrolytic opening of the lactone ring by LC-MS analysis", "format": "physicochemical", "details": "buffer"}, "[15]": {"assay": "Prodrug activation in human A549 cells assessed as reduction in blue fluorescence at 100 nM incubated for 72 to 120 hrs using DAPI staining based laser confocal fluorescence microscopy", "format": "cell-based", "details": "a549, 0.1 µM, time 72-120 hrs"}, "[16]": {"assay": "Prodrug activation in human A549 cells assessed as SN-38 release by measuring increase in blue fluorescence intensity at 100 uM in presence of bis(pinacolato)diboron incubated for 1 hr by DAPI staining based confocal fluorescence microscopy", "format": "cell-based", "details": "a549, 1 h"}, "A549 [17]": {"system": "A549", "assay": "Cytotoxicity against human A549 cells assessed as cell growth inhibition incubated for 120 hrs by CCK-8 assay", "format": "functional, cell-based", "details": "A549, 120 h"}, "[18]": {"assay": "Prodrug activation in human A549 cells xenografted in nude mouse assessed as drug release by measuring increase in yellow fluorescence at 5 mg/kg, iv administered every 5 mins for 1 hr by FITC staining based confocal laser scanning microscopy", "format": "organism-based", "details": "in vivo"}, "[19]": {"assay": "Stability of prodrug in PBS at pH 7.4 assessed as 7-hydroxylcoumarin formation at 1 uM measured after 24 hrs by HPLC analysis", "format": "physicochemical", "details": "buffer, pH 7.4, 24 h"}}, "data": [{"smiles": "Nc1ccc(CO)cc1", "values": [{"measurement": "pKa", "setting": "[1]", "result": 9.68}]}, {"smiles": "CCc1c2c(nc3ccc(OCc4ccc([N+](C)(C)[O-])cc4)cc13)-c1cc3c(c(=O)n1C2)COC(=O)[C@]3(O)CC", "values": [{"measurement": "Drug metabolism", "setting": "[2]", "result": "Metabolite_Detected"}, {"measurement": "IC50", "setting": "A549 [3]", "result": 9.2, "unit": "nM"}, {"measurement": "IC50", "setting": "A549 [4]", "result": 29.6, "unit": "nM"}, {"measurement": "IC50 at 72 h", "setting": "[5]", "result": 66.3, "unit": "nM"}, {"measurement": "Drug metabolism", "setting": "[6]", "result": "Metabolite_Detected"}, {"measurement": "IC50", "setting": "A549 [7]", "result": 128, "unit": "nM"}, {"measurement": "Drug uptake", "setting": "[8]", "result": "Active"}, {"measurement": "Drug metabolism", "setting": "[9]", "result": "Metabolite_Detected"}, {"measurement": "solubility", "setting": "[10]", "result": 3.2736, "unit": "µM"}, {"measurement": "Drug metabolism", "setting": "[11]", "result": "Metabolite_Detected"}, {"measurement": "Retention_time", "setting": "[12]", "result": 1.8, "unit": "min"}, {"measurement": "Drug uptake", "setting": "[13]", "result": "Active"}, {"measurement": "Stability", "setting": "[14]", "result": "Stable"}, {"measurement": "Drug metabolism", "setting": "[15]", "result": "Metabolite_Detected"}, {"measurement": "Drug metabolism", "setting": "[16]", "result": "Metabolite_Detected"}, {"measurement": "IC50", "setting": "A549 [17]", "result": 17.1, "unit": "nM"}, {"measurement": "Drug metabolism", "setting": "[18]", "result": "Metabolite_Notdetected"}]}, {"smiles": "CN(C)c1ccc(CO)cc1", "values": [{"measurement": "IC50 at 72 h", "setting": "[5]", "result": "> 100000", "unit": "nM"}]}, {"smiles": "C[N+](C)([O-])c1ccc(COc2ccc3ccc(=O)oc3c2)cc1", "values": [{"measurement": "Stability", "setting": "[19]", "result": "Stable"}]}, {"smiles": "CCc1c2c(nc3ccc(O)cc13)-c1cc3c(c(=O)n1C2)COC(=O)[C@]3(O)CC", "note": "[7-ETHYL-10-HYDROXYCAMPTOTHECIN]", "values": [{"measurement": "IC50 at 72 h", "setting": "[5]", "result": 14.2, "unit": "nM"}, {"measurement": "IC50", "setting": "A549 [7]", "result": 11.9, "unit": "nM"}, {"measurement": "solubility", "setting": "[10]", "result": 0.01101, "unit": "µM"}, {"measurement": "pKa", "setting": "[1]", "result": 9.2}, {"measurement": "IC50", "setting": "A549 [17]", "result": 3.8, "unit": "nM"}]}]}
